These molecules were tested on neutrophils (assay: Neutrophil calcium flux assay (5-OXO-ETE-stimulated, Indo-1 fluorescence)). Conditions: 5-OXO-ETE-stimulated calcium flux.
Type: cell-based
Procedure, shortened: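 Indo-1-loaded neutrophils (5×10^6 cells/ml, 30 min at 37 °C) in HBSS with Ca/Mg and HEPES, pre-incubated 5 min with antagonist or buffer. Stimulated with 5-OXO-ETE added at 200 nM (4× stock); fluorescence (ex 331/em 410 nm) read every 5 s for 30 cycles, expressed as net fluorescence.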

Structure (SMILES) | IC50
CC(CC(=O)O)CC(=O)n1c(CCCCCCc2cccc(Cl)c2)cc2ncc(Cl)cc21 (stereo not drawn) [Compound I-305] | < 100 nM
CC(CC(=O)O)CC(=O)c1c(CCCCCC(O)c2cccc(C(=O)N(C)C)c2)n(C)c2ncc(C#N)cc12 (single isomer, unassigned) [Compound I-317] | < 100 nM
CC(CC(=O)O)CC(=O)n1c(CCCCCCc2cccc(Cl)c2)cc2ncc(Cl)cc21 (stereo not drawn) [Compound I-468] | > 300 nM

Same assay, conditions: Neutrophil, 5-OXO-ETE-stimulated calcium flux

Structure (SMILES) | IC50
C[C@H](CC(=O)O)CC(=O)c1c(CCCCOCc2cccc(C#N)c2)n(C)c2ccncc12 [Compound I-396] | < 100 nM
CC(C)[C@@H](CC(=O)O)CC(=O)c1c(CCCCOCc2ccccc2)n(C)c2ncc(C#N)cc12 [Compound I-437] | > 300 nM
CC(CC(=O)O)CC(=O)c1c(CCCCOCc2cccc(C(=O)N(C)C)c2)n(C)c2ncc(C#N)cc12 (stereo not drawn) [Compound I-370] | < 100 nM
C[C@H](CC(=O)O)CC(=O)c1c(CCCCCCc2cccnc2)n(C)c2ccc(Cl)cc12 [Compound I-53] | < 100 nM
Cn1c(CCCCOCc2cccc(Cl)c2)c(C(=O)N2CC[C@H](C(=O)O)C2)c2cnccc21 [Compound I-442] | > 300 nM
CC(CC(=O)O)CC(=O)c1c(CCOCCNc2cccc(Cl)c2)n(C)c2ncc(C#N)cc12 (stereo not drawn) [Compound I-288] | 100 to 300 nM
C[C@H](CC(=O)O)CC(=O)c1c(CCCCCCC#CC2CC(F)(F)C2)n(C)c2ccc(Cl)cc12 [Compound I-319] | < 100 nM
C[C@H](CC(=O)c1c(CCCCOCc2ccccc2)n(C)c2ncc(C#N)cc12)Cc1nnn[nH]1 (stereo in doubt) [Compound I-360] | > 300 nM
C[C@H](CC(=O)O)CC(=O)c1c(CCCCOCc2cccc(OC(F)(F)F)c2)n(C)c2ncc(C#N)cc12 [Compound I-389] | < 100 nM
C[C@H](CC(=O)O)CC(=O)c1c(CCCCOCc2cccc(C#N)c2)n(C)c2cc(F)ccc12 [Compound I-413] | < 100 nM
C[C@H](CC(=O)O)CC(=O)c1c(COCCCCC#CC2CC(F)(F)C2)n(C)c2ccc(Cl)cc12 [Compound I-327] | < 100 nM
CC(CC(=O)O)CC(=O)c1c(CCOCCNc2cccc(F)c2)n(C)c2ncc(C#N)cc12 (stereo not drawn) [Compound I-296] | 100 to 300 nM
CC(CC(=O)O)CC(=O)c1c(CCCC[S+]([O-])Cc2ccccc2)n(C)c2ncc(C#N)cc12 (stereo not drawn) [Compound I-427] | > 300 nM
Cn1nc(CCCCOCc2cccc(Cl)c2)c(C(=O)N2CC[C@H](C(=O)O)C2)c1-c1cccc(Cl)c1 [Compound I-192] | > 300 nM
C[C@H](CC(N)=O)CC(=O)c1c(CCCCOCc2cccc(Cl)c2)n(C)c2ncc(Cl)cc12 [Compound I-356] | > 300 nM
CC(CC(=O)O)CC(=O)c1c(CCCCCCC#CC2CC(F)(F)C2)n(C)c2ncc(C#N)cc12 (stereo not drawn) [Compound I-322] | < 100 nM
CC(CNC(=O)c1c(CCCCCCc2cccc(Cl)c2)n(C)c2ccc(Cl)cc12)C(=O)O (stereo not drawn) [Compound I-241] | > 300 nM
Cn1c(CCCCCCC#CC2CC(F)(F)C2)c(C(=O)N2CC[C@H](C(=O)O)C2)c2cc(Cl)ccc21 [Compound I-339] | < 100 nM
C[C@@H](CC(=O)O)CC(=O)c1c(CCCCOCc2cccc(F)c2)n(C)c2ncc(C#N)cc12 [Compound I-294] | > 300 nM
CC(C)CCCCc1c(C(=O)C[C@H](C)CC(=O)O)c2cc(Cl)ccc2n1C [Compound I-70] | 100 to 300 nM
Cn1c(CCCCCCC#CC2CC(F)(F)C2)c(C(=O)N2CC[C@@H](C(=O)O)C2)c2cc(C#N)cnc21 [Compound I-341] | > 300 nM
C[C@H](CC(=O)NCCS(=O)(=O)O)CC(=O)c1c(CCCCOCc2ccccc2)n(C)c2ncc(C#N)cc12 [Compound I-461] | > 300 nM

Structure (SMILES) | IC50
C[C@@H](CC(=O)O)CC(=O)c1c(CCCCCCCC#CC2CC(F)(F)C2)n(C)c2ncc(C#N)cc12 [Compound I-336] | > 300 nM
C[C@H](CC(=O)O)CC(=O)c1c(CCCCCOCC#CC2CC(F)(F)C2)n(C)c2ccc(Cl)cc12 [Compound I-337] | < 100 nM
C[C@H](CC(=O)O)CC(=O)c1c(CCCCCCc2cccc(Cl)c2)n(CCO)c2ncc(C#N)cc12 [Compound I-279] | < 100 nM
CC(CC(=O)O)CC(=O)c1c(CCOCCNc2cccnc2)n(C)c2ncc(Cl)cc12 (stereo not drawn) [Compound I-139] | > 300 nM
COc1nccc(COCCCCc2c(C(=O)CC(C)CC(=O)O)c3cc(Cl)cnc3n2C)n1 (stereo not drawn) [Compound I-448] | > 300 nM
CC(=O)N(C)c1cccc(COCCCCc2c(C(=O)CC(C)CC(=O)O)c3cc(C#N)cnc3n2C)c1 (stereo not drawn) [Compound I-299] | 100 to 300 nM
Cn1c(CCCCCCC#CC2CC(F)(F)C2)c(C(=O)N2CC[C@H](c3noc(=O)[nH]3)C2)c2cc(C#N)cnc21 [Compound I-456] | > 300 nM
C[C@H](CC(=O)O)CC(=O)c1c(CCCCCCc2cccc(Cl)c2)n(C)c2ncc(Cl)cc12 [Compound I-24] | > 300 nM
CC(C)[C@H](CC(=O)O)CC(=O)c1c(CCCCOCc2ccccc2)n(C)c2ncc(C#N)cc12 [Compound I-436] | > 300 nM
C[C@H](CC(=O)O)CC(=O)c1c(CCCCO[C@H](C)c2ccccc2)n(C)c2ncc(C#N)cc12 [Compound I-434] | < 100 nM
Cn1c(CCCCCCc2cccc(Cl)c2)c(C(=O)N2CCC(C)(C(=O)O)C2)c2cc(Cl)ccc21 (stereo not drawn) [Compound I-157] | > 300 nM
C[C@H](CC(=O)O)CC(=O)c1c(CCOCCCc2cccc(Cl)c2)n(C)c2ccc(Cl)cc12 [Compound I-62] | < 100 nM
C[C@H](CC(=O)O)CC(=O)c1c(CCCCCOc2ncccn2)n(C)c2ccc(Cl)cc12 [Compound I-130] | > 300 nM
C[C@@H](CC(=O)O)CC(=O)c1c(CCCCOCc2cccc(Cl)c2)n(C)c2cnc(Cl)cc12 [Compound I-411] | > 300 nM
Cn1c(CCCCOCc2ccccc2)c(C(=O)N2CC[C@H](C(=O)O)C2)c2cnccc21 [Compound I-441] | > 300 nM
C[C@H](CC(=O)O)CC(=O)c1c(CCOCCCC#CC2CC(F)(F)C2)n(C)c2ccc(Cl)cc12 [Compound I-326] | < 100 nM
C[C@@H](CC(=O)O)CC(=O)c1c(CCCCOCc2ccc(F)cc2)n(C)c2ncc(Cl)cc12 [Compound I-216] | > 300 nM
CC(CC(=O)O)CC(=O)c1c(CCCCCCc2cccc(Cl)c2)n(C[C@@H](O)CO)c2ncc(C(N)=O)cc12 (stereo partly drawn) [Compound I-283] | 100 to 300 nM
Cn1c(CCCCCCC#CC2CC(F)(F)C2)c(C(=O)N2CC[C@H](c3nnn[nH]3)C2)c2cc(C#N)cnc21 [Compound I-354] | < 100 nM
C[C@H](CC(=O)O)CC(=O)c1c(CCCCCCc2cnccn2)n(C)c2ccc(Cl)cc12 [Compound I-81] | 100 to 300 nM
CCCCCCc1cc2ccc(Cl)cc2n1C(=O)C[C@H](C)CC(=O)O [Compound I-12] | > 300 nM
C[C@@H](CC(=O)O)CC(=O)c1c(CCCCCCC#CC2CC(F)(F)C2)n(C)c2ncc(C#N)cc12 [Compound I-329] | > 300 nM

Structure (SMILES) | IC50
CC(CC(=O)O)CC(=O)c1c(CCCCOCc2ccc(Cl)cc2)n(C)c2ncc(C#N)cc12 (stereo not drawn) [Compound I-290] | 100 to 300 nM
Cn1c(CCCCCC(O)c2cccc(Cl)c2)c(C(=O)N2CC[C@H](c3nnn[nH]3)C2)c2cc(C#N)cnc21 (stereo partly drawn) [Compound I-225] | 100 to 300 nM
C[C@H](CC(=O)O)CC(=O)c1c(CCCCC(=O)Nc2cccc(Cl)c2)n(C)c2ccc(Cl)cc12 [Compound I-80] | > 300 nM
CC(CC(=O)O)CC(=O)c1c(C[C@H]2CC[C@@H](OCc3cccc(Cl)c3)CC2)n(C)c2ncc(C#N)cc12 (stereo partly drawn) [Compound I-399] | > 300 nM
Cn1c(CCCCOCc2cccc(Cl)c2)c(C(=O)N2CC[C@H](C(=O)O)C2)c2cc(C#N)cnc21 [Compound I-179] | > 300 nM
COc1cnc2c(c1)c(C(=O)CC(C)CC(=O)O)c(CCCCOCc1ccccc1)n2C (stereo not drawn) [Compound I-103] | > 300 nM
C[C@@H](CC(=O)O)CC(=O)c1c(CCCCOCc2ccccc2)n(C)c2ncc(C#N)cc12 [Compound I-106] | > 300 nM
C[C@H](CC(=O)O)CC(=O)c1c(CCCCC#Cc2cccnc2)n(C)c2ccc(Cl)cc12 [Compound I-176] | < 100 nM
C[C@H](CC(=O)O)CC(=O)c1c(CCCCCNc2ncccn2)n(C)c2ccc(Cl)cc12 [Compound I-82] | 100 to 300 nM
C[C@H](CC(=O)O)CC(=O)c1c(CCCCCCC#CC2CC(F)(F)C2)[nH]c2ccc(Cl)cc12 [Compound I-323] | < 100 nM
CC(CN(C)C(=O)c1c(CCCCOCc2cccc(Cl)c2)n(C)c2ncc(C#N)cc12)C(=O)O (stereo not drawn) [Compound I-244] | > 300 nM
Cn1cc(-c2ccccc2Cl)c(C(=O)N2CC[C@H](C(=O)O)C2)c1CCCCOCc1cccc(Cl)c1 [Compound I-166] | > 300 nM
C[C@H](CC(=O)O)CC(=O)c1c(CCCCOCc2cc(Cl)cc(Cl)c2)n(C)c2ncc(C#N)cc12 [Compound I-385] | < 100 nM
C[C@H](CC(=O)O)CC(=O)c1c(CCCCOCc2cccc(C#N)c2)n(C)c2nc(F)c(Cl)cc12 [Compound I-418] | < 100 nM
CC(CC(=O)O)CC(=O)c1c(CCCCC#Cc2ccc(F)nc2)n(C)c2ncc(Cl)cc12 (stereo not drawn) [Compound I-227] | > 300 nM
CC(CC(=O)O)CC(=O)c1c(CCCCCC(O)c2ccc(F)cc2)n(C)c2ncc(Cl)cc12 (stereo not drawn) [Compound I-218] | > 300 nM
C[C@H](CC(=O)O)CC(=O)c1c(CCCCCNC(=O)C2CC2)n(C)c2ccc(Cl)cc12 [Compound I-127] | > 300 nM
C[C@@H](CC(=O)c1c(CCCCCCC#CC2CC(F)(F)C2)n(C)c2ccc(Cl)cc12)Cc1nnn[nH]1 [Compound I-352] | < 100 nM
C[C@H](CC(=O)O)CC(=O)c1c(CCCCCN(C)c2ncccn2)n(C)c2ccc(Cl)cc12 [Compound I-124] | 100 to 300 nM
C[C@H](CC(=O)O)CC(=O)c1c(CCCOCCC#CC2CC(F)(F)C2)n(C)c2ccc(Cl)cc12 [Compound I-325] | < 100 nM
C[C@H](CC(=O)O)CC(=O)c1c(CCCCOCC#CC2CC(F)(F)C2)n(C)c2ccc(Cl)cc12 [Compound I-324] | < 100 nM
C[C@@H](CC(=O)O)CC(=O)c1c(CCCCOCc2cccc(Cl)c2)n(C)c2cnccc12 [Compound I-406] | > 300 nM
